In patent US6780431B1, “Substituted benzylthiazolidine-2,4-dione derivatives” (Kyorin Pharmaceutical Co., Ltd., priority 1999, dated 2004):
Read-outs that look alike come from different tables or passages of the source.

Experiments:
[1] = target: T1, human type PPARα ligand-binding domain fused with yeast transcription factor DNA-binding domain (Homo sapiens, UniProt Q07869); assay: Test of transactivation on PPARα (CHO cells, reporter plasmid, CAT activity)
T1 sequence (Q07869 239-466 limits assumed): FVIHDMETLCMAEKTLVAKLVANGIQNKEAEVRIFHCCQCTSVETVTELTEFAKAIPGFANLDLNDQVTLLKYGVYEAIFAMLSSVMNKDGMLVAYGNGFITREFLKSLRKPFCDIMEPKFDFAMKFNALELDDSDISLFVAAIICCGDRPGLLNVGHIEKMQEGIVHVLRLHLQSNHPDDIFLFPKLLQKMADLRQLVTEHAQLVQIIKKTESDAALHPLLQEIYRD
Method: (§1) Test of Transactivation on Peroxisome Proliferator-activated Receptors α and β
(§2) After 24 hours, CAT activity and β-galactosidase activity were measured.

[2] = target: T2, human PPARγ ligand-binding domain fused with yeast transcription factor DNA-binding domain (Homo sapiens, UniProt P37231); assay: Test of transactivation on PPARγ (CHO cells, reporter plasmid, CAT activity)
T2 sequence (P37231 238-503 limits assumed): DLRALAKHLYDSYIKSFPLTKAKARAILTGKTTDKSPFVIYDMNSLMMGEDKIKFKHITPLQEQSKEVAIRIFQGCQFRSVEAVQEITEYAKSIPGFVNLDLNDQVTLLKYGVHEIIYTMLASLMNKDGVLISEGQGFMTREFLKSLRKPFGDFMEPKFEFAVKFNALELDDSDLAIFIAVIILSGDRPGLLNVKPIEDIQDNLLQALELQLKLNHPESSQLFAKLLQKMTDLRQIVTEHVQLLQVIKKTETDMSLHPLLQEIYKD
Method: as §1, §2

| Structure (SMILES) | melting point [°C] | EC50 ([1]; read-out: Transactivation PPARα EC50, CHO cells, 24 hours, CAT activity with β-galactosidase internal standard) [nM] | EC50 [1] [nM] | EC50 [2] [nM] |
| --- | --- | --- | --- | --- |
| COc1ccc(CC2SC(=O)NC2=O)cc1C(=O)NCc1ccc(OC(C)C)cc1 (stereo not drawn) (hydrate or solvate) [Example 6] | 79 to 81.5 | – | – | – |
| CCCOc1ccc(CNC(=O)c2cc(CC3SC(=O)NC3=O)ccc2OC)cc1 (stereo not drawn) (hydrate or solvate) [Example 7] | 132 to 133 | – | – | – |
| COc1ccc(CC2SC(=O)NC2=O)cc1C(=O)NCc1ccc(Cl)cc1Cl (stereo not drawn) (hydrate or solvate) [Example 8] | 188 to 189 | – | – | – |
| COc1ccc(CC2SC(=O)NC2=O)cc1C(=O)NCc1ccc(Cl)c(Cl)c1 (stereo not drawn) (hydrate or solvate) [Example 9] | 181 to 182 | – | – | – |
| CCCCC/C=C\C/C=C\C=C\[C@@H](O)C/C=C\CCCC(=O)O [(8S)-HETE, reference compound] | – | 1300 | – | – |
| COc1ccc(CC2SC(=O)NC2=O)cc1C(=O)NCc1ccc([N+](=O)[O-])cc1 (stereo not drawn) [Example 1, N-[(4-Nitrophenyl)methyl]-5-[(2,4-dioxothiazolidin-5-yl)methyl]-2-methoxybenzamide] | 236.5 to 238.5 | – | 530 | 1600 |
| COc1ccc(CC2SC(=O)NC2=O)cc1C(=O)NCc1ccc(Br)cc1 (stereo not drawn) [Example 2] | 198 to 200 | – | 490 | 290 |
| COc1ccc(CC2SC(=O)NC2=O)cc1C(=O)NCc1ccc(Cl)cc1 (stereo not drawn) [Example 3] | 199 to 201 | – | 260 | 400 |
| COc1ccc(CC2SC(=O)NC2=O)cc1C(=O)NCc1cccc(OC(F)(F)F)c1 (stereo not drawn) [Example 4] | – | – | 180 | 360 |
| CCOc1ccc(CNC(=O)c2cc(CC3SC(=O)NC3=O)ccc2OC)cc1 (stereo not drawn) [Example 5] | 130 to 132 | – | 430 | 300 |
| COc1ccc(CC2SC(=O)NC2=O)cc1C(=O)NCc1ccc(OC(C)C)cc1 (stereo not drawn) [Example 6] | – | – | 760 | 110 |
| CCCOc1ccc(CNC(=O)c2cc(CC3SC(=O)NC3=O)ccc2OC)cc1 (stereo not drawn) [Example 7] | – | – | 110 | 1800 |
| COc1ccc(CC2SC(=O)NC2=O)cc1C(=O)NCc1ccc(Cl)cc1Cl (stereo not drawn) [Example 8] | – | – | 220 | 280 |
| COc1ccc(CC2SC(=O)NC2=O)cc1C(=O)NCc1ccc(Cl)c(Cl)c1 (stereo not drawn) [Example 9] | – | – | 700 | 1100 |
